# Results reported in patent CN109329202A, “一种有效抑制n-羟乙酰神经氨酸合成的方法” (Guizhou University, priority 2018, dated 2019).
# Tested on: Neu5Gc synthesis [Neu5Gc的合成]
# Assay: Neu5Gc degradation in rat muscle, liver and kidney after 30 d oral gavage (HPLC after DMB derivatisation)
# Format: in vivo
# Conditions: male SD rats, oral gavage 200 mg/(kg.d) in 0.5% sodium carboxymethylcellulose, vs blank control (HPLC peak area)
structure (smiles),measurement,setting,value
O=c1c(O)c(-c2ccc(O)cc2)oc2cc(O)cc(O)c12 [山奈酚],"Neu5Gc degradation rate, kidney sample",kidney,17.55%
same,"Neu5Gc degradation rate, liver sample",liver,6.315%
same,"Neu5Gc degradation rate, meat sample",thigh muscle,13.356%
